Source: patent EP2608671B1, “COMPOUNDS FOR TREATMENT OF CANCER” (Gtx, Inc., priority 2010, dated 2012)
Read-outs that look alike come from different tables or passages of the source.

What was measured:
PC-3 = assay: cells; conditions: Homo sapiens
Source text: (§1) The only compounds which belong to the invention are the ones falling under the scope of formula (XI).
Cells were stained with SRB solution.
Cells. […] Cells between the third and fifth passages were used for experiments.
Cell growth inhibition studies. […] Cells were stained with sulphorhodamine B (SRB) solution.

B16-F1 = assay: SRB cell growth inhibition (cytotoxicity) assay; format: cell-based, mouse
Source text: as §1

LNCaP = assay: cells; conditions: Homo sapiens
DU 145 = assay: cells; conditions: Homo sapiens
A375 = assay: SRB cell growth inhibition (cytotoxicity) assay; format: cell-based, human
WM-164 = assay: SRB cell growth inhibition (cytotoxicity) assay; format: cell-based, human; conditions: Homo sapiens
PPC-1 = assay: cells; conditions: Homo sapiens
[1] = PC-3, read-out: IC50 ±SEM (nM), PC-3
[2] = Mus musculus, B16-F1; Table 6; read-out: IC50 ±SEM (nM), B16-F1
[3] = read-out: IC50 ±SEM (nM), LNCaP
[4] = DU-145, read-out: IC50 ±SEM (nM), DU 145
[5] = Homo sapiens, A-375; Table 6; read-out: IC50 ±SEM (nM), A375
[6] = PPC-1, read-out: IC50 ±SEM (nM), PPC-1
[7] = PC-3, 96 h, read-out: IC50 ± SEM (nM), PC-3
[8] = Mus musculus, B16-F1; read-out: IC50 ± SEM (nM), B16-F1
[9] = 96 h, read-out: IC50 ± SEM (nM), LNCaP
[10] = DU-145, 96 h, read-out: IC50 ± SEM (nM), DU 145
[11] = Homo sapiens, A-375, 96 h; read-out: IC50 ± SEM (nM), A375
[12] = WM164, SRB assay, 96 h, Table 2, read-out: IC50 ± SEM (nM), WM-164
[13] = PPC-1, 96 h, read-out: IC50 ± SEM (nM), PPC-1
[14] = Mus musculus, B16-F1, read-out: IC50 ± SEM (nM), B16-F1
[15] = Homo sapiens, A-375, 96 h, read-out: IC50 ± SEM (nM), A375
[16] = WM164, 96 h, read-out: IC50 ± SEM (nM), WM-164

Compound	IC50 (PC-3; [7])	IC50 (B16-F1; [8])	IC50 (LNCaP; [9])	IC50 (DU 145; [10])	IC50 (A375; [11])	IC50 (PPC-1; [13])	IC50 (B16-F1; [14])	IC50 (A375; [15])	further results
COc1cc(C(=O)c2cc(-c3ccccc3)n[nH]2)cc(OC)c1OC [1k, (3-Phenyl-1H-pyrazol-5-yl)(3,4,5-trimethoxyphenyl)methanone]									IC50 (PC-3; [1]): 101 nM; IC50 (B16-F1; [2]): 245 nM; IC50 (LNCaP; [3]): 101 nM; IC50 (DU 145; [4]): 140 nM; IC50 (A375; [5]): 100 nM; IC50 (WM-164; WM164, Table 6, read-out: IC50 ±SEM (nM), WM164): 220 nM; IC50 (PPC-1; [6]): 84 nM
COc1cc(C(=C(C)C)c2csc(-c3ccccc3)n2)cc(OC)c1OC [2a, 4-(2-Methyl-1-(3,4,5-trimethoxyphenyl)prop-1-enyl)-2-phenylthiazole]	2470 nM	3800 ± 1300 nM	1390 nM	2650 nM	1900 ± 800 nM	2040 nM			IC50 (WM-164; [12]): 3700 ± 1200 nM
COc1cc(C(O)c2csc(-c3ccccc3)n2)cc(OC)c1OC (centres unmarked) [2b, (2-Phenylthiazol-4-yl)(3,4,5-trimethoxyphenyl)methanol]	> 10000 nM	> 30000 nM	> 10000 nM	> 10000 nM	> 30000 nM	> 10000 nM			
COc1cc(/C(=C\C#N)c2csc(-c3ccccc3)n2)cc(OC)c1OC [2c-cis, (E)-3-(2-phenylthiazol-4-yl)-3-(3,4,5-trimethoxyphenyl)acrylonitrile]	~10000 nM		1990 nM	~10000 nM		~10000 nM	1200 ± 300 nM	1200 ± 400 nM	IC50 (WM-164; [16]): 1000 ± 200 nM
COc1cc(/C(=C/C#N)c2csc(-c3ccccc3)n2)cc(OC)c1OC [2c-trans, (Z)-3-(2-phenylthiazol-4-yl)-3-(3,4,5-trimethoxyphenyl)acrylonitrile]	890 nM		580 nM	2280 nM		900 nM	5400 ± 2100 nM	4600 ± 1500 nM	IC50 (WM-164; [16]): 4900 ± 1300 nM
COc1cc(/C(=N/N)c2csc(-c3ccccc3)n2)cc(OC)c1OC [2d-cis, (Z)-4-(hydrazono(3,4,5-trimethoxyphenyl)methyl)-2-phenylthiazole]	1120 nM	2000 ± 800 nM	1800 nM	1210 nM	900 ± 300 nM	872 nM			
COc1cc(/C(=N\N)c2csc(-c3ccccc3)n2)cc(OC)c1OC [2d-trans, (E)-4-(hydrazono(3,4,5-trimethoxyphenyl)methyl)-2-phenylthiazole]	1040 nM	1800 ± 700 nM	1300 nM	1210 nM	600 ± 200 nM	966 nM			
CO/N=C(/c1cc(OC)c(OC)c(OC)c1)c1csc(-c2ccccc2)n1 [2f-cis, (Z)-(2-Phenylthiazol-4-yl)(3,4,5-trimethoxyphenyl)methanone O-methyl oxime]	> 10000 nM	3800 ± 1600 nM	> 10000 nM	> 10000 nM	2900 ± 1200 nM	> 10000 nM			IC50 (WM-164; [12]): 3400 ± 1800 nM
CO/N=C(\c1cc(OC)c(OC)c(OC)c1)c1csc(-c2ccccc2)n1 [2f-trans, (E)-(2-Phenylthiazol-4-yl)(3,4,5-trimethoxyphenyl)methanone O-methyl oxime]	> 10000 nM	> 10000 nM	> 10000 nM	> 10000 nM	> 10000 nM	> 10000 nM			IC50 (WM-164; [12]): > 10000 nM
COc1cc(C(=O)Nc2csc(-c3ccccc3)n2)cc(OC)c1OC [2h, 3,4,5-Trimethoxy-N-(2-phenylthiazol-4-yl)benzamide]	> 10000 nM	> 30000 nM	> 10000 nM	> 10000 nM	> 30000 nM	> 10000 nM			
COc1cc(-c2csc(-c3ccccc3)n2)cc(OC)c1OC [2i, 2-Phenyl-4-(3,4,5-trimethoxyphenyl)thiazole]	> 10000 nM	> 10000 nM	> 10000 nM	> 10000 nM	> 10000 nM	> 10000 nM			IC50 (WM-164; [12]): > 10000 nM
COc1cc(C(=O)c2csc(-c3ccc(CC#N)cc3)n2)cc(OC)c1OC [2n, 2-(4-(4-(3,4,5-Trimethoxybenzoyl)thiazol-2-yl)phenyl)acetonitrile]									IC50 (PC-3; [1]): 131 nM; IC50 (B16-F1; [2]): 290 nM; IC50 (LNCaP; [3]): 101 nM; IC50 (DU 145; [4]): 143 nM; IC50 (A375; [5]): 210 nM; IC50 (PPC-1; [6]): 99 nM
COc1cc(/C=C\c2csc(-c3ccccc3)n2)cc(OC)c1OC [3a, (Z)-2-Phenyl-4-(3,4,5-trimethoxystyryl)thiazole]	> 10000 nM		> 10000 nM	> 10000 nM		> 10000 nM	11000 ± 2800 nM	46500 ± 23300 nM	
COc1cc(/C=C/c2csc(-c3ccccc3)n2)cc(OC)c1OC [3b, (E)-2-Phenyl-4-(3,4,5-trimethoxystyryl)thiazole]	> 10000 nM		> 10000 nM	> 10000 nM		> 10000 nM	32800 ± 13000 nM	> 10000 nM	IC50 (WM-164; [16]): 30800 ± 12000 nM
O=C(c1cc(O)c(O)c(O)c1)c1c[nH]c(-c2ccc(O)c(O)c2)n1 [13ha, (2-(3,4-dihydroxyphenyl)-1H-imidazol-4-yl)(3,4,5-trihydroxyphenyl)methanone]									IC50 (B16-F1; Mus musculus; B16-F1 melanoma cells, 48 h, SRB; read-out: IC50 ± SEM (nM) B16-F1): > 10000 nM; IC50 (A375; Homo sapiens, A-375; A375 melanoma cells, 48 h, SRB; read-out: IC50 ± SEM (nM) A375): > 10000 nM; IC50 (WM-164; WM164 melanoma cells, 48 h, SRB, read-out: IC50 ± SEM (nM) WM164): > 10000 nM
COc1cc(C(=O)c2coc(-c3ccccc3)n2)cc(OC)c1OC [36a, (2-Phenyl-oxazol-4-yl)-(3,4,5-trimethoxy-phenyl)-methanone]	294 nM	600 ± 200 nM	310 nM	292 nM	300 ± 100 nM	324 nM			
COc1cc(C(=O)[C@@H]2CSC(c3ccc(O[Si](C)(C)C(C)(C)C)cc3)=N2)cc(OC)c1OC [58a, (R)-(2-(4-(tert-Butyldimethylsilyloxy)phenyl)-4,5-dihydrothiazol-4-yl)(3,4,5-trimethoxyphenyl)methanone]	183 ± 24 nM		549 nM	434 ± 30 nM		246 ± 8 nM	500 ± 200 nM	700 ± 300 nM	
COc1cc(C(=O)c2csc(-c3cc4ccccc4[nH]3)n2)cc(OC)c1OC [62a, (2-(1H-indol-2-yl)thiazol-4-yl)(3,4,5-trimethoxyphenyl)methanone]	24 nM		28 nM	32 nM		28 nM	43 ± 21 nM	19 ± 9 nM	
COc1cc(C(=O)c2csc(-c3ccc(CNC(=O)OC(C)(C)C)cc3)n2)cc(OC)c1OC [68a, tert-Butyl 4-(4-(3,4,5-trimethoxybenzoyl)thiazol-2-yl)benzylcarbamate]	3100 nM	2900 ± 400 nM	2600 nM	4400 nM	7900 ± 500 nM	2700 nM			
CC(C)C[C@H](NC(=O)[C@H](Cc1ccccc1)NC(=O)c1cnccn1)B(O)O [Bortezomib, reference compound]									IC50 (B16-F1; Mus musculus, B16-F1, read-out: IC50 ± SEM (nM) (n=3), B16-F1; Table 14A): 24 ± 2 nM; IC50 (A375; Homo sapiens, A-375, read-out: IC50 ± SEM (nM) (n=3), A375; Table 14A): 8 ± 1 nM; IC50 (WM-164; WM164, read-out: IC50 ± SEM (nM) (n=3), WM-164, Table 14A): 8 ± 1 nM
